Assay results: US20230372375A1, “SGLT-2 INHIBITOR SARCOSINE CO-CRYSTAL, PREPARATION METHOD THEREFOR AND USE THEREOF” (Beijing Creatron Institute of Pharmaceutical Research Co. …, priority 2020, published 2023)
Like-named read-outs stand apart in the source and are kept apart here.

Key:
[1] = Influencing factors test (physical and chemical stability) of canagliflozin crystal forms, Test Example 2; format: physicochemical; set-up: Impurity RRT0.73 content / Impurity RRT0.93 content / Impurity RRT1.12 content / Impurity RRT1.17 content / Impurity RRT2.25 content / Impurity RRT2.28 content / Impurity RRT0.57 content / Impurity RRT0.67 content: unit not given here
Protocol: The canagliflozin-sarcosine cocrystal and canagliflozin hemihydrate (original crystal form) were tested for influencing factors.

[2] = Directly exposed at 60° C. for 10 days
[3] = Directly exposed at 5000 LX for 10 days
[4] = Directly exposed at RH75% for 10 days
[5] = light irradiation of 5000LX for 10 days

Impurity RRT0.57 content ([1]; 0 day): 0.01
Impurity RRT0.93 content ([1]; 0 day): 0.01
Impurity RRT2.25 content ([1]; 0 day): 0.01
Number of impurities ([1]; 0 day): 3
Property (appearance) ([1]; 0 day): White
Total content of impurities ([1]; 0 day): 0.03%
Impurity RRT0.57 content [1, 2]: 0.01
Impurity RRT0.93 content [1, 2]: 0.01
Impurity RRT2.25 content [1, 2]: 0.01
Number of impurities [1, 2]: 3
Property (appearance) [1, 2]: White
Total content of impurities [1, 2]: 0.03%
Impurity RRT0.57 content [1, 3]: 0.05
Impurity RRT0.73 content [1, 3]: 0.01
Impurity RRT0.93 content [1, 3]: 0.01
Impurity RRT1.12 content [1, 3]: 0.01
Impurity RRT2.25 content [1, 3]: 0.01
Number of impurities [1, 3]: 5
Property (appearance) [1, 3]: White
Total content of impurities [1, 3]: 0.09%
Impurity RRT0.57 content [1, 4]: 0.01
Impurity RRT0.93 content [1, 4]: 0.01
Impurity RRT2.25 content [1, 4]: 0.01
Number of impurities [1, 4]: 3
Property (appearance) [1, 4]: White
Total content of impurities [1, 4]: 0.03%
Crystal form stability (XRPD) ([1]; each influencing factor for 10 days vs 0 day): did not change
Number of impurities detected and total content of impurities detected, change ([1]; high temperature 60° C. and high humidity of RH75% for 10 days vs 0 day): did not show an increasing trend
Weight change ([1]; high temperature of 60° C. and high humidity of RH75%): basically remained unchanged
Maximum detected amount of new impurities [1, 5]: about 0.05%
New impurities detected (number) [1, 5]: 2
Solubility (Acetate buffer of pH 4.0, 25° C., 12 h): 32.65 mg/mL
Solubility (Acetate buffer of pH 4.0, 25° C., 24 h): 32.66 mg/mL
Solubility (Artificial gastric juice, 25° C., 12 h): 31.16 mg/mL
Solubility (Artificial gastric juice, 25° C., 24 h): 32.08 mg/mL
Solubility (Artificial intestinal juice, 25° C., 12 h): 30.35 mg/mL
Solubility (Artificial intestinal juice, 25° C., 24 h): 30.89 mg/mL
Solubility (Citrate buffer of pH 3.0, 25° C., 12 h): 33.87 mg/mL
Solubility (Citrate buffer of pH 3.0, 25° C., 24 h): 34.23 mg/mL
Solubility (Hydrochloric acid of pH 1.0, 25° C., 12 h): 34.92 mg/mL
Solubility (Hydrochloric acid of pH 1.0, 25° C., 24 h): 35.12 mg/mL
Solubility (Phosphate buffer of pH 6.8, 25° C., 12 h): 31.28 mg/mL
Solubility (Phosphate buffer of pH 6.8, 25° C., 24 h): 33.34 mg/mL
Solubility (Water, 25° C., 12 h): 35.12 mg/mL
Solubility (Water, 25° C., 24 h): 34.56 mg/mL
Solubility in different pH media (summary over media, 25° C.): about 30 μg/ml
Solubility in different pH media (words) (summary over media, 25° C.): almost insoluble
Compound: CNCC(=O)O.Cc1ccc([C@@H]2O[C@H](CO)[C@@H](O)[C@H](O)[C@H]2O)cc1Cc1ccc(-c2ccc(F)cc2)s1 [canagliflozin-sarcosine cocrystal]
